Molecular target: INO80 (Saccharomyces cerevisiae, UniProt P53115)
Test: real-time fluorescent phosphate-release ATPase assay
Format: biochemical
Conditions: 0.1 nM INO80; with or without 15 nM nucleosomes or DNA; 23 °C

Nc1ncnc2c1ncn2[C@@H]1O[C@H](COP(=O)(O)OP(=O)(O)OP(=O)(O)O)[C@@H](O)[C@H]1O [ATP]
KM: KM for the ATPase of SWR1, INO80, and SWI/SNF in the presence or absence
